The source of these data is patent US12458630B2, “Combination therapy for cancer” (The Regents of the University of California, priority 2020, dated 2025).

In one experiment the test system is KC6141 tumors. Put plainly: s.c. tumors in C57BL/6 mice. The experiment is classed as in vivo, mouse. The settings on record: EIPA 7.5 mg/kg, MRT68921 10 mg/kg, 21 days (3 weeks). The method, then:
To evaluate the effects of MP on tumor growth in the autochthonous model, Kras^G12D;Ikkα^Δpan mice, at 4 weeks of age, were treated with vehicle or 10 mg/kg EIPA (Sigma) by intraperitoneal injection every other day for 1 month. After that, surgically removed pancreata were weighed and used for further analysis. To evaluate the effects of MP on heterotopic xenografts, female homozygous BALB/c Nu/Nu nude mice were injected subcutaneously (s.c.) in both flanks at 7 weeks of age with 10^6 parental and IKKα KO MIA PaCa-2 cells mixed at a 1:1 dilution with BD Matrigel (BD Biosciences) in a total volume of 100 μl. Mice were treated with EIPA (7.5 mg/kg) for 15 days when tumors attained an average volume of 50-100 mm^3. As a control, animals treated with vehicle (DMSO in PBS) were used. Volumes (1/2×(width^2×length)) of s.c. tumors were calculated on the basis of measurements using digital calipers after 15 days of treatment. […] Tumor volumes were calculated as above.
In some embodiments, to evaluate the effects of MP on tumor growth or survival in the autochthonous model, Kras^G12D;Ikkα^ΔPEC mice, at 4 weeks of age, were treated with vehicle or 10 mg/kg EIPA (Sigma) by i.p. injection every other day for 1 month. […] Volumes (1/2×(width^2×length)) of s.c. tumors were calculated on the basis of measurements using digital calipers after 15 days of treatment. […] Tumor volumes were calculated as above.

In a further experiment the test system is KC6141 cells. In words: L-Amino acid assay. Format: cell-based, mouse. The settings on record: 0.5 mM glucose, 24 hrs; for amino acid content: KC6141 cells on ECM. The method, then: Extracellular Matrix (ECM) Preparation. Skin fibroblasts were seeded on 6/12/96-well plates. One day after plating, cells were switched into DMEM (with pyruvate) with 10% dialysed FBS supplemented with or without 500 μM ^3H-proline and 100 μM Vitamin C. Cells were cultured for 6 days with media renewal every 24 h. After six days, skin fibroblasts were removed by washing in 1 ml or 500 μl or 100 μl per well PBS with 0.5% (v/v) Triton X-100 and 20 mM NH4OH. ECM was washed five times with PBS before plating KC6141 cells. The following day, KC6141 cells were switched into the indicated medium for 24 or 72 hrs.
L-Amino Acid Assay. Total amount of free L-amino acids (except for glycine) were measured by L-Amino Acid Assay Kit (Colorimetric) (antibodies) according to manufacturer's protocol. Briefly, KC6141 cells were grown on 6-well plates coated with or without ECM and treated as above. The cells were resuspended at 10^6 cells/mL 1× Assay Buffer and were homogenized on ice and then centrifuged to remove debris. 50 μL of each L-Alanine standard or cell lysis was added into wells of a 96-well microtiter plate. Then 50 μL of Reaction Mix was added to each well. The well contents were mixed thoroughly and incubated for 90 minutes at 37° C. protected from light. The plate was read with a spectrophotometric microplate reader in the 540-570 nm range. The concentration of L-Amino Acids was calculated within samples by comparing the sample OD to the standard curve.

As to `CCN(c1nc(N)c(C(=O)N=C(N)N)nc1Cl)C(C)C` [EIPA, 5-(N-ethyl-N-isopropyl) amiloride], in the experiment on KC6141 tumors, the tumor growth entry is given as “small effect”. In addition, the amino acid content result in the experiment with KC6141 cells was “reduced”. Further, the “amino acid content in p62/NRF2 ablated cells” value in the experiment on KC6141 cells (p62 KD or Nrf2 KD KC6141 cells on ECM) is given as “ineffective”.

In the case of `CN1CCc2cc(Nc3ncc(C4CC4)c(NCCCNC(=O)C4CCC4)n3)ccc2C1` [MRT68921], in the experiment with KC6141 tumors, the tumor growth result is “small effect”. For the same molecule, in the experiment on KC6141 cells, the amino acid content entry is recorded as “further elevated”.
